Test results from US7205306B2, “Substituted pyrazinones, pyridines and pyrimidines as corticotropin releasing factor ligands” (Bristol-Myers Squibb Pharma Company, priority 2001, dated 2007).
Values joined by “and” are separate entries in the source; they are usually repeats but may differ in a detail not shown here. Identical values can stand only once. Counter-ions that a name gives are not always drawn.

Row | SMILES | melting point
1 | CCc1cn(C(CC)CC)c(=O)c(N2CCc3cc(Cl)cc(Cl)c32)n1 [Example 539, 3-(5,7-Dichloro-2,3-dihydro-1H-indol-1-yl)-5-ethyl-1-(1-ethylpropyl)-2(1H)-pyrazinone] | 136 to 137 °C
2 | CC[C@H](C1CC1)n1cc(Cl)nc(N2CCc3cc(OC)c(F)c(Cl)c32)c1=O [Example 513, 5-Chloro-3-(7-chloro-6-fluoro-5-methoxy-2,3-dihydro-1H-indol-1-yl)-1-[(1R)-1-cyclopropylpropyl]-2(1H)-pyrazinone] | 128 to 130 °C
3 | CCC(CC)Nc1cc(N2CCc3cc(Cl)cc(Cl)c32)nc(C)n1 [Example 1, 4-(5,7-dichloro-2,3-dihydro-1H-indol-1-yl)-6-(1-ethylpropylamino)-2-methylpyrimidine] | 116 to 117 °C
4 | CCC(COC)n1cc(Cl)nc(N2CCc3cc(OC)c(F)c(Cl)c32)c1=O (centres unmarked) [Example 522, 5-Chloro-3-(7-chloro-6-fluoro-5-methoxy-2,3-dihydro-1H-indol-1-yl)-1-[1-(methoxymethyl)propyl]-2(1H)-pyrazinone] | 140 to 142 °C
5 | CCC(CC)Nc1nc(C)nc(N2CCc3cc(OC)cc(Cl)c32)c1C=O [Example 60, 4-(7-chloro-5-methoxy-2,3-dihydro-1H-indol-1-yl)-6-(1-ethylpropylamino)-5-formyl-2-methylpyrimidine] | 178 to 179 °C
6 | CC[C@H](COC)n1cc(Br)nc(N2CCc3cc(OC)c(F)c(Cl)c32)c1=O [Example 528, 5-Bromo-3-(7-chloro-6-fluoro-5-methoxy-2,3-dihydro-1H-indol-1-yl)-1-[(1R)-1-(methoxymethyl)propyl]-2(1H)-pyrazinone] | 150 to 152 °C
7 | COC[C@@H](C)n1cc(Cl)nc(N2CCc3cc(Br)cc(Br)c32)c1=O [Example 521, 5-Chloro-3-(5,7-dibromo-2,3-dihydro-1H-indol-1-yl)-1-[(1R)-2-methoxy-1-methylethyl]-2(1H)-pyrazinone] | 119 to 120 °C
8 | CCC(C)n1cc(Cl)nc(N2CCc3cc(Br)cc(Cl)c32)c1=O (centres unmarked) [Example 538, 3-(5-Bromo-7-chloro-2,3-dihydro-1H-indol-1-yl)-5-chloro-1-methylpropyl-2(1H)-pyrazinone] | 150 °C
9 | CC[C@@H](COC)n1cc(Br)nc(N2CCc3cc(Cl)cc(Cl)c32)c1=O [Example 531, 5-Bromo-3-(5,7-dichloro-2,3-dihydro-1H-indol-1-yl)-1-[(1S)-1-(methoxymethyl)propyl]-2(1H)-pyrazinone] | 152 to 154 °C
10 | CC[C@@H](C1CC1)n1cc(Cl)nc(N2CCc3cc(OC)c(F)c(Cl)c32)c1=O [Example 519, 5-Chloro-3-(7-chloro-6-fluoro-5-methoxy-2,3-dihydro-1H-indol-1-yl)-1-[(1S)-1-cyclopropylpropyl]-2(1H)-pyrazinone] | 127 to 129 °C
11 | CCC(COC)Nc1nc(C)nc(N2CCc3cc(OC)cc(Cl)c32)c1C#N (centres unmarked) [Example 75, 4-(7-chloro-5-methoxy-2,3-dihydro-1H-indol-1-yl)-5-cyano-6-[1-(1-methoxymethyl)propylamino]-2-methylpyrimidine] | 182 to 183 °C
12 | CC[C@H](COC)n1cc(Br)nc(N2CCc3cc(Cl)cc(Cl)c32)c1=O [Example 527, 5-Bromo-3-(5,7-dichloro-2,3-dihydro-1H-indol-1-yl)-1-[(1R)-1-(methoxymethyl)propyl]-2(1H)-pyrazinone] | 150 to 152 °C
13 | CCC(C)Nc1cc(N2CCc3cc(OC)cc(Cl)c32)nc(C)n1 (centres unmarked) [Example 310, 4-(7-chloro-5-methoxy-2,3-dihydro-1H-indol-1-yl)-6-(1-methylpropylamino)-2-methylpyrimidine] | 102 to 105 °C
14 | CC[C@@H](C1CC1)n1cc(Cl)nc(N2CCc3cc(Br)cc(Br)c32)c1=O [Example 518, 5-Chloro-1-[(1S)-1-cyclopropylpropyl]-3-(5,7-dibromo-2,3-dihydro-1H-indol-1-yl)-2(1H)-pyrazinone] | 165 °C
15 | CCC(CC)Nc1nc(C)nc(N2CCc3cc(OC)cc(Cl)c32)c1C#N [Example 59, 4-(7-chloro-5-methoxy-2,3-dihydro-1H-indol-1-yl)-5-cyano-6-(1-ethylpropylamino)-2-methylpyrimidine] | 189 to 190 °C and 192 to 194 °C
16 | CSCCn1cc(Cl)nc(N2CCc3cc(Cl)cc(Cl)c32)c1=O [Example 535, 5-Chloro-3-(5,7-dichloro-2,3-dihydro-1H-indol-1-yl)-1-[2-(methylthio)ethyl]-2(1H)-pyrazinone] | 127 to 128 °C
17 | COc1cc(C)c2c(c1)CCN2c1nc(Cl)cn(CCSC)c1=O (as salt: hydrochloride) [Example 534, 5-Chloro-3-(5-methoxy-7-methyl-2,3-dihydro-1H-indol-1-yl)-1-[2-(methylthio)ethyl]-2(1H)-pyrazinone] | 111 to 113 °C
18 | CC[C@H](COC)n1cc(Br)nc(N2CCc3cc(Br)cc(Cl)c32)c1=O [Example 547, 5-Bromo-3-(5-bromo-7-chloro-2,3-dihydro-1H-indol-1-yl)-1-[(1R)-1-(methoxymethyl)propyl]-2(1H)-pyrazinone] | 118 °C
19 | CCC(CC)Nc1nc(C)nc(N2CCc3cc(Cl)cc(Cl)c32)c1Cl [Example 2, 5-chloro-4-(5,7-dichloro-2,3-dihydro-1H-indol-1-yl)-6-(1-ethylpropylamino)-2-methylpyrimidine] | 132 to 134 °C
20 | CC[C@H](COC)n1cc(Cl)nc(N2CCc3cc(Cl)cc(Cl)c32)c1=O [Example 524, 5-Chloro-3-(5,7-dichloro-2,3-dihydro-1H-indol-1-yl)-1-[(1R)-1-(methoxymethyl)propyl]-2(1H)-pyrazinone] | 143 to 146 °C

Further lines, results first:

Row | melting point | SMILES
21 | 131 to 133 °C | CCC(COC)n1cc(Cl)nc(N2CCc3cc(OC)cc(Cl)c32)c1=O (centres unmarked) [Example 413, 5-Chloro-3-(7-chloro-5-methoxy-2,3-dihydro-1H-indol-1-yl)-1-[1-(methoxymethyl)propyl]-2(1H)-pyrazinone]
22 | 93 to 94 °C | CC[C@@H](COC)n1cc(Cl)nc(N2CCCc3cc(OC)cc(Br)c32)c1=O [Example 555, 3-(8-Bromo-6-methoxy-1,2,3,4-tetrahydroquinoline)-5-chloro-1-[(1S)-1-(methoxymethyl)propyl]-2(1H)-pyrazinone]
23 | 115 to 117 °C | CC[C@@H](COC)n1cc(Br)nc(N2CCc3cc(OC)cc(C)c32)c1=O (as salt: hydrochloride) [Example 549, 5-Bromo-3-(5-methoxy-7-methyl-2,3-dihydro-1H-indol-1-yl)-1-[(1S)-1-(methoxymethyl)propyl]-2(1H)-pyrazinone]
24 | 155 to 157 °C | CCC(C)n1cc(Cl)nc(N2CCc3cc(OC)cc(Br)c32)c1=O (centres unmarked) (as salt: hydrochloride) [Example 502, 3-(7-Bromo-5-methoxy-2,3-dihydro-1H-indol-1-yl)-5-chloro-1-(1-methylpropyl)-2(1H)-pyrazinone]
25 | 137 to 139 °C | CCC(CC)n1cc(C)nc(N2CCc3cc(Cl)cc(Cl)c32)c1=O [Example 451, 3-(5,7-Dichloro-2,3-dihydro-1H-indol-1-yl)-1-(1-ethylpropyl)-5-methyl-2(1H)-pyrazinone]
26 | 176 to 178 °C | CCC(C)n1cc(Cl)nc(N2CCc3cc(OC)cc(C)c32)c1=O (centres unmarked) (as salt: hydrochloride) [Example 503, 5-Chloro-3-(5-methoxy-7-methyl-2,3-dihydro-1H-indol-1-yl)-1-(1-methylpropyl)-2(1H)-pyrazinone]
27 | 125 to 126 °C | CCC(CC)n1cc(Cl)nc(N2CCCc3cc(OC)cc(Br)c32)c1=O [Example 550, 3-(8-Bromo-6-methoxy-1,2,3,4-tetrahydroquinoline)-5-chloro-1-(1-ethylpropyl)-2(1H)-pyrazinone]
28 | 127 to 129 °C | CC[C@H](C1CC1)n1cc(Cl)nc(N2CCCc3cc(OC)cc(Br)c32)c1=O [Example 551, 3-(8-Bromo-6-methoxy-1,2,3,4-tetrahydroquinoline)-5-chloro-1-[(1R)-1-cyclopropylpropyl]-2(1H)-pyrazinone]
29 | 118 to 119 °C | CC[C@@H](C1CC1)n1cc(Cl)nc(N2CCCc3cc(OC)cc(Br)c32)c1=O [Example 552, 3-(8-Bromo-6-methoxy-1,2,3,4-tetrahydroquinoline)-5-chloro-1-[(1S)-1-cyclopropylpropyl]-2(1H)-pyrazinone]
30 | 121 to 122 °C | CC[C@@H](COC)n1cc(Cl)nc(N2CCc3cc(Br)cc(Cl)c32)c1=O [Example 548, 3-(5-Bromo-7-chloro-2,3-dihydro-1H-indol-1-yl)-5-chloro-1-[(1S)-1-(methoxymethyl)propyl]-2(1H)-pyrazinone]
31 | 146 °C | COC[C@@H](C)n1cc(Cl)nc(N2CCCc3cc(OC)cc(Br)c32)c1=O [Example 553, 3-(8-Bromo-6-methoxy-1,2,3,4-tetrahydroquinoline)-5-chloro-1-[(1R)-2-methoxy-1-methylethyl]-2(1H)-pyrazinone]
32 | 158 to 160 °C | CCC(CC)n1cc(Br)nc(N2CCc3cc(Cl)cc(Cl)c32)c1=O [Example 507, 5-Bromo-3-(5,7-dichloro-2,3-dihydro-1H-indol-1-yl)-1-(1-ethylpropyl)-2(1H)-pyrazinone]
33 | 138 to 140 °C | CCC(CC)n1cc(C)nc(N2CCc3cc(OC)cc(C)c32)c1=O (as salt: hydrochloride) [Example 481, 3-(5-Methoxy-7-methyl-2,3-dihydro-1H-indol-1-yl)-1-(1-ethylpropyl)-5-methyl-2(1H)-pyrazinone]
34 | 118 to 120 °C | CC[C@H](C1CC1)n1cc(Cl)nc(N2CCc3cc(OC)cc(Cl)c32)c1=O (as salt: hydrochloride) [Example 508, 5-Chloro-3-(7-chloro-5-methoxy-2,3-dihydro-1H-indol-1-yl)-1-[(1R)-1-cyclopropylpropyl]-2(1H)-pyrazinone]
35 | 126 to 128 °C | CC[C@H](COC)n1cc(Cl)nc(N2CCc3cc(OC)cc(Cl)c32)c1=O (as salt: hydrochloride) [Example 544, 5-Chloro-3-(7-chloro-5-methoxy-2,3-dihydro-1H-indol-1-yl)-1-[(1R)-1-(methoxymethyl)propyl]-2(1H)-pyrazinone]
